Experimental data reported in patent publication US20190351002A1, “METHOD OF TREATING CANCER, PARASITE, MICROBIAL OR FUNGAL DISEASE” (priority 2017, published 2019).

Key:
[1] = system: Hep2 (Human Epidermoid Larynx ca) cells; assay: MTT cytotoxicity test on Hep2 cell line; type: cell-based
Description: The oils of the plant as an extract are used which have been obtained by cold pressing and it has been ensured that the extract is fresh and pure. The extracts that have been obtained through the whole study have been initially diluted with solvents, filtered and sterilized. Cytotoxicity study (MTT test) has been developed as a method regarding the Hep2 cell line in all parameters for initial doses. The maximum dose and dilution sub doses that have been determined accordingly have been repeated controlled groups. Different amounts of Hep2 cells have been tested in flat bottomed 96 well plates for cell culture during the first stage of the study and it has been determined that 2×10^4 cells were optimal for the monolayer layer of 2×10^4 cell per well. A pure oil of Zingiber officinale extract, which has been tested inside various solvents in terms of penetration into cells and homogenous distribution. MTT tests have been carried out relating to Hep2 cells in solvents too. DMSO was selected from solvents such as DMSO and Methanol and was used and cytopathic doses have not been exceeded during the whole study (FIG. 1). Essential oil has been obtained from Ginger and emulsions have been obtained from fixed oil plants (Nigella Sativa etc.) and compounds. According to MTT test (FIG. 2) results that belong to Zingiber officinale, the average OD values of the control group have been determined as 1.38.

Toxoplasma gondii = assay: ELISA test of efficiency against Toxoplasma gondii in infected Hep2 cells; type: cell-based; details: 48 hour
Description: An ELISA (Enzyme-Linked Immunosorbent Assay) test (FIG. 3) has been planned and conducted in order to determine efficiency against Toxoplasma gondii.
The ELISA test has been carried out on flat bottom well plates having 96 wells. First of all, the bases of the plates have been covered with a suitable amount of Hep2 cells. […] Following this all wells have been processed again with different doses (determined with MTT) of pyrimtheamine, sulphadiazine—and Ginger (Zingiber officinals) extract, prepared with DMSO.
1 Following all of these procedures, the supernatants were removed from the wells and were retained for 10 minutes with 100 μl cold methanol. • The plates which were ready for the ELISA process were then worked.
The result was read by the ELISA reader device in 30 minutes.

Structure (SMILES)	OD value (MTT test) ([1]; 50 μg/ml)	OD value (MTT test) ([1]; 100 μg/ml)	OD value (MTT test) ([1]; 200 μg/ml)	OD value (MTT test) ([1]; 1 μg/ml)	OD value (MTT test) ([1]; 2 μg/ml)	OD value (MTT test) ([1]; 4 μg/ml)	OD value (MTT test) ([1]; 8 μg/ml)	OD value (MTT test) ([1]; 16 μg/ml)	OD value (MTT test) ([1]; 32 μg/ml)	ELISA OD value / reproduction according to positive control (PK) (Toxoplasma gondii; 0.5 μg/ml) [%]	ELISA OD value / reproduction according to positive control (PK) (Toxoplasma gondii; 4 μg/ml) [%]	ELISA OD value / reproduction according to positive control (PK) (Toxoplasma gondii; 2nd dose (printed '2.1 and 0.5 μg/ml': 2 μg/ml)) [%]	ELISA OD value / reproduction according to positive control (PK) (Toxoplasma gondii; 3rd dose) [%]
Nc1ccc(S(=O)(=O)Nc2ncccn2)cc1 [Sulphadiazine]	1.002	0.827	0.254										
CCc1nc(N)nc(N)c1-c1ccc(Cl)cc1 [Pyrimethamine]				1.228	1.198	0.623	0.310	0.209	0.097	75	45	56	54
